Literature values, collected in patent US11065260B1, “Method of treatment for reducing pulmonary inflammation in a patient with pathogen infection using oral prostacyclin analog drugs” (priority 2020, dated 2021).

Experiments:
COVID-19 [1] = details: several small trials
pulmonary inflammation = details: several animal studies
[2] = patients with pulmonary hypertension and ARDS
[3] = within 1 hour, pH 7.4 phosphate buffer, optimal formulation
[4] = human, in vivo
[5] = human, in vivo, po
[6] = in vivo, po
[7] = human, in vivo, inhaled or intranasal
COVID-19 [8] = details: randomized clinical trial of 199 patients

In the case of `CCN(CCO)CCCC(C)Nc1ccnc2cc(Cl)ccc12` (stereo not drawn) [hydroxychloroquine], the clinical results (COVID-19 [1]) is given as “mixed results”.

In the case of `CC#CCC(C)[C@H](O)/C=C/[C@@H]1[C@H]2C/C(=C/CCCC(=O)O)C[C@H]2C[C@H]1O` (stereo partly drawn) [iloprost], the pulmonary inflammation (pulmonary inflammation) is given as “reduce pulmonary inflammation”, the gas exchange [2] is given as “improved” and the “in vitro dissolution of the dose” value [3] is given as 60%. For the same compound, the contraindications [4] was “no contraindications”, the side effects [4] was “minimal side effects” and the “adverse effects leading to discontinuation of dose escalation” value [5] was “flushing and headache”. The bioavailable dose fraction [5] was “highest”, the “duration of half-maximal serum levels (mean)” value [5] was 2.4 h and the “duration of therapeutic serum levels” value [5] was 2.1 to 5.0 h. The “IL-2 and RANKL” value (T cells) was “increasing”, the “TNF-α production by T cells” value (T cells) was “reducing” and the “number of T regulatory cells” value (T cells) was “reducing”. For the same compound, the “production of interleukin IL-6” value (human monocytes) was “inhibit”, the “production of intracellular TNF-α” value (human monocytes) was “inhibit” and the steady-state serum levels [6] was 260 pg/mL. For the same compound, the half-life [7] was 20 to 30 min.

For lopinavir-ritonavir, the clinical benefit (COVID-19 [8]) is listed as “No benefit”.
